Results: patent US5416090A, “Method of treating inflammation” (priority 1992, dated 1995)
Read-outs that look alike come from different tables or passages of the source.

Tests used:
[1] = test system: carrageenan induced paw swelling; assay: Carrageenan edema model (acute paw inflammation); format: in vivo, rat (Lewis); conditions: Rattus norvegicus, ip; read-out: ED50, inhibition of carrageenan induced paw swelling
[2] = test system: dopamine receptor (DTH response); assay: Reversal of DTH inhibition by dopamine receptor antagonists; format: in vivo, mouse; conditions: FIG. 9 Panels B, C legend; pretreated with domperidone or sulpiride
Method: Male Balb/c mice (Charles River) weighing 20 to 25 g were used in all DTH studies. When adrenalectomized studies were carried out, sham surgery and adrenalectomized mice were obtained from the vendor. Animals were maintained on a 12:12 hour light:dark cycle. Mice were allowed ad lib access for food (Purina lab chow) and water (normal saline for adrenalectomized animals).
A DTH response was assessed by measuring the degree of rear foot pad swelling induced by picryl chloride. On day 0, mice were sensitized with 100 μl of 5% picryl chloride (in ethanol), which was applied to a shaved abdomen. Negative control groups were shaved but not sensitized. On day 3, mice were anesthetized with methoxyflurane, and the baseline rear foot pad thickness was measured with a micrometer (Mitutoyo) in μ, and was recorded in duplicate. Fifty μl of picryl chloride was then applied to each pad with a pipet (Rainen) while the animal was unconscious. The negative controls also received picryl chloride at this point to control for primary irritancy. Twenty-four hours later, the mice were sacrificed by CO2 asphyxiation and each rear foot pad was again measured in duplicate, and any evidence of foot pad swelling was calculated. The mean rear foot swelling change of both pads for each animal from days 3 to 4 was used as the index of immune function in the DTH assay.
Unless otherwise stated all animals were given four subcutaneous doses of test compound just prior to picryl chloride sensitization on day 0, on day 1 and day 2, and just prior to picryl chloride challenge on day 3. In a few experiments, compounds were administered via oral or intraperitoneal routes. All drugs were delivered as suspensions in 1% carboxy-methylcellulose (also contained 0.8% NaCl, 1% polysorbate-80, 1.4% benzyl alcohol). Carboxymethyl-cellulose (1%) was used in control injections.

[3] = test system: graft versus host response (splenomegaly); format: in vivo, mouse (B6C3F1); conditions: FIG. 13, 10 daily doses
[4] = Toxicity study / survival in mice; format: in vivo, mouse; conditions: FIG. 4; survival curve
Method: FIG. 4 Effect of 2 or 4 days treatment with compound 1 on a murine delayed type hypersensitivity (DTH) response (panel A) and toxicity study with compound 1 in mice (panel B). NEG=negative control for DTH; POS=positive control for DTH; CMC=carboxymethylcellulose (vehicle).
The activity of ergoline compounds was also evaluated in a murine delayed-type hypersensitivity (DTH) assay. The DTH assay was performed in substantial accordance with the method set forth in Example 1. Briefly, mice were sensitized by topical administration of picryl chloride on day 1 of the assay. On day 4 paw size was determined and recorded and the paw was then challenged with picryl chloride. The challenged paw was remeasured on day 5 to quantitate the DTH response via the increase in paw size. Results of the effects of compound D-1-isopropyl-6-n-propyl-8β-methylthiomethyl ergoline in the murine DTH model are presented in FIG. 4. FIG. 4, Panel A illustrates the efficacy of compound D-1-isopropyl-6-n-propyl-8β-methylthiomethyl ergoline in reducing paw swelling. […] FIG. 4, Panel B is a survival curve of mice treated with varying dosages of D-1-isopropyl-6-n-propyl-8β-methylthiomethyl ergoline.

[5] = test system: substance P induced paw swelling; assay: Substance P induced acute paw inflammation; format: in vivo, rat (Lewis); conditions: pre-treated with 3 mg/kg
Method: In one such model, the acute paw inflammation model, rats were treated with test compounds one hour prior to plantar injection of a 50 μl volume of a phlogistic. Animals were sacrificed and paw weights were determined at a prescribed time interval following the plantar injections. When 1% carrageenan was used as the phlogistic, the time interval between injection and sacrifice was 3 hours. When serotonin (5-hydroxytryptamine (5-HT)) was used, as the phlogistic agent the time interval was one hour. When substance P was used, the time interval was 30 minutes. The acute paw inflammation model is described in more detail in Example 3.
Male Lewis rats (Charles River or Harlan Sprague Dawley) weighing 180 to 250 g were used in all acute inflammatory studies. Animals were maintained on a 12:12 hour light:dark cycle and were allowed ad lib access for food (Purina lab chow) and water. Experimental groups consisted of 5 or 6 rats.
Acute paw swelling was induced by the intraplantar injection of phlogistic agents into the left hind paw, with the uninjected right hind paw serving as the comparative control. […]

[6] = test system: serum prolactin; assay: Serum prolactin levels in rats; format: in vivo, rat (Lewis); conditions: FIG. 11, 0.3, 3 and 30 mg/kg, 1 hour post-treatment
Method: A further mechanistic study wherein rat serum prolactin levels were quantitated 1 hour post-treatment with varying doses of D-1-isopropyl-6-n-propyl-8β-methylthiomethyl ergoline is summarized in FIG. 11. […] A time course/dose response study of D-1-isopropyl-6-n-propyl-8β-methylthio-methyl ergoline effects on murine serum prolactin levels is presented in FIG. 12. […] There is however a disparity between the suppression of prolactin and anti-inflammatory activities of the ergolines with regard to the dose response profiles. Serum prolactin levels are much more sensitive to D-1-isopropyl-6-n-propyl-8β-methylthiomethyl ergoline (maximal suppression ~≤0.1 mg/kg) than are the anti-inflammatory effects 3-10 mg/kg, See FIG. 5).
Both Balb/C mice (male, approximately 20 g, Charles Rivers) and Lewis rats (male, approximately 200 g, Charles River or Harlan Sprague Dawley) were used in neuroendocrine studies. Animals were maintained on a 12:12 hour light:dark cycle and were allowed ad lib access for food (Purina lab chow) and water. Experimental groups consisted of 6 to 8 animals.
After dosing with test compounds, animals were sacrificed by decapitation at 1, 3, 8 or 24 hour intervals. […] Serum prolactin was determined by radioimmunoassay. Serum corticosterone levels were determined with a kit designed for such determinations and obtained from ICN.

[7] = listed as D-1-isopropyl-6-n-propyl-8β-methylthiomethyl ergoline

CCCN1C[C@H](CSC)C[C@@H]2c3cccc4c3c(cn4C(C)C)C[C@H]21 [Compound 1, D-1-isopropyl-6-n-propyl-8β-methylthiomethyl ergoline]
ED50 [1]: ~0.3 mg/kg | reversal of DTH inhibition by antagonist pretreatment [2]: reversal of inhibition of the DTH | immunosuppressive activity / effect on GVH splenomegaly ([3]; listed as D-1-isopropyl-6-n-propyl-8β-methyl-thiomethyl ergoline): unaffected | immunosuppressive activity / effect on GVH splenomegaly [3, 7]: no immunosuppressive activity | immunosuppressive activity / effect on GVH splenomegaly ([3]; listed as compound 1): Lack of effect | efficacious DTH dosages relative to toxic level [4]: well within the toxic level of the compound | increase in paw weight after substance P ([5]; Substance P 0.01 mg/ml, untreated 174 ±18 mg): 38 ± 11 mg | reduction of substance P induced increase in paw weight ([5]; p<0.05): 49% | serum prolactin levels [6, 7]: dramatically reduced serum prolactin levels | serum prolactin levels ([6]; listed as compound 1): Suppression of serum prolactin levels
